# Assays:
# rat [1] = settings: Prenatal developmental toxicity study, sprague dawley, Inhalation, Whole-Body, dose end: 20 GD
# rat [2] = settings: Subchronic oral toxicity in rodents, sprague dawley, Feed, dose end: 13 week
# rat [3] = settings: Prenatal developmental toxicity study, sprague dawley, Oral, Gavage/Intubation, dose end: 16 GD
# rabbit [4] = settings: Prenatal developmental toxicity study, new zealand white, Oral, Gavage/Intubation, dose end: 19 GD
# rat [5] = settings: Prenatal developmental toxicity study, other, Oral, Gavage/Intubation, dose end: 15 GD
# mouse = settings: Prenatal developmental toxicity study, cd1, Oral, Gavage/Intubation, dose end: 15 GD
# rat [6] = settings: Subchronic oral toxicity in rodents, sprague dawley, Feed, dose end: 3 month
# rabbit [7] = settings: Prenatal developmental toxicity study, other, Oral, Gavage/Intubation, dose end: 18 GD
# rat [8] = settings: Multigenerational reproductive toxicity study, other, Oral, Feed, dose end: 2 generation
# rabbit [9] = settings: Prenatal developmental toxicity study, himalayan, Oral, Gavage/Intubation, dose end: 18 GD
# rat [10] = settings: Prenatal developmental toxicity study, wistar, Oral, Gavage/Intubation, dose end: 16 GD
# rat [11] = settings: Multigenerational reproductive toxicity study, other, Oral, Feed, dose end: 2 generation; remark: listed apart in the source
# hamster = settings: Prenatal developmental toxicity study, golden syrian, Oral, Gavage/Intubation, dose end: 15 GD
# rat [12] = settings: Prenatal developmental toxicity study, sprague dawley, Oral, Gavage/Intubation, dose end: 15 GD
# rat [13] = settings: Multigenerational reproductive toxicity study, wistar, Oral, Feed, dose end: 2 generation
# [14] = group: developmental, systemic / in life observation / body weight / fetal weight
# [15] = group: developmental, systemic / in life observation / body weight / fetal weight + developmental / developmental malformation / bone / incomplete ossification
# [16] = group: maternal, systemic / in life observation / body weight / body weight gain + systemic / in life observation / food consumption / food consumption
# [17] = group: maternal, reproductive / reproductive performance / estrous cycle / length
# [18] = group: systemic, systemic / clinical chemistry / calcium / calcium + systemic / clinical chemistry / globulins / globulins + systemic / clinical chemistry / …
# [19] = group: developmental, developmental / developmental malformation / bone / incomplete ossification + developmental / developmental malformation / bone / unossified…
# [20] = group: maternal, systemic / in life observation / body weight / body weight gain
# [21] = group: maternal, systemic / in life observation / body weight / body weight gain + reproductive / reproductive performance / postimplantation loss / …
# [22] = group: developmental, developmental / developmental malformation / brain / hydrocephaly + developmental / developmental malformation / bone / domed head
# [23] = group: maternal, reproductive / reproductive performance / postimplantation loss / postimplantation loss + reproductive / reproductive performance / …
# [24] = group: developmental, developmental / developmental malformation / bone / [other] + developmental / developmental malformation / bone / discontinuous
# [25] = group: developmental, developmental / developmental malformation / bone / [other] + developmental / developmental malformation / bone / discontinuous + …
# [26] = group: maternal, systemic / in life observation / water consumption / water consumption
# [27] = group: maternal, systemic / in life observation / water consumption / water consumption + systemic / in life observation / body weight / body weight gain + …
# [28] = group: maternal, systemic / in life observation / water consumption / water consumption + systemic / in life observation / clinical signs / altered breathing…
# [29] = group: cholinesterase, cholinesterase / cholinesterase / cholinesterase / cholinesterase (che)
# [30] = group: systemic, systemic / hematology / anemia / anemia - hemolytic + systemic / in life observation / body weight / body weight gain + systemic / in life …
# [31] = group: systemic, systemic / hematology / blood clotting / blood clotting - activated partial thromboplastin time + systemic / hematology / blood clotting / …
# [32] = group: developmental, developmental / developmental malformation / bone / full supernumerary + systemic / in life observation / body weight / fetal weight
# [33] = group: developmental, developmental / developmental malformation / bone / full supernumerary + systemic / in life observation / body weight / fetal weight + …
# [34] = group: maternal, systemic / in life observation / body weight / body weight gain + systemic / in life observation / food consumption / food consumption + …
# [35] = group: offspring, systemic / in life observation / body weight / offspring (pup) weight
# [36] = group: offspring, systemic / in life observation / body weight / offspring (pup) weight + developmental / developmental malformation / bone / extra …
# [37] = group: parental, systemic / pathology microscopic / spleen / hemosiderosis
# [38] = group: parental, systemic / pathology microscopic / spleen / hemosiderosis + systemic / in life observation / body weight / body weight gain + systemic / in …
# [39] = group: developmental, developmental / developmental malformation / bone / [other] + developmental / developmental malformation / bone / fragmented + developmental…
# [40] = group: maternal, systemic / in life observation / mortality / mortality + systemic / in life observation / clinical signs / [other] + systemic / in life …
# [41] = group: developmental, developmental / developmental malformation / bone / bent
# [42] = group: maternal, systemic / in life observation / body weight / body weight + systemic / in life observation / body weight / body weight gain + systemic / in…
# [43] = group: parental, systemic / in life observation / body weight / body weight + systemic / in life observation / body weight / body weight gain
# [44] = group: reproductive, reproductive / reproductive performance / fertility / fertility + reproductive / reproductive performance / precoital interval / precoital …
# [45] = group: developmental, developmental / developmental malformation / bone / [other] + developmental / developmental malformation / bone / absent + developmental / …
# [46] = group: maternal, systemic / in life observation / clinical signs / ataxia + systemic / in life observation / clinical signs / body temperature + systemic / …
# [47] = group: developmental, developmental / developmental malformation / bone / fragmented + developmental / developmental malformation / bone / unossified + …
# [48] = group: maternal, systemic / in life observation / body weight / body weight gain + systemic / in life observation / mortality / mortality + systemic / …
# [49] = group: offspring, systemic / in life observation / body weight / offspring (pup) weight + systemic / organ weight / spleen / absolute + systemic / organ …
# [50] = group: parental, systemic / organ weight / spleen / absolute
# [51] = group: parental, systemic / organ weight / spleen / absolute + systemic / in life observation / body weight / body weight gain + systemic / pathology …
# [52] = group: reproductive, reproductive / reproductive performance / estrous cycle / abnormal
compound,measurement,setting,value
"Cc1cc(C)cc(C)c1 [1,3,5-Trimethylbenzene]",LEL,rat [1]; [14],600 ppm
same,LOAEL,rat [1]; [14],600 ppm
same,NEL,rat [1]; [15],300 ppm
same,NOAEL,rat [1]; [15],300 ppm
same,LEL,rat [1]; [16],300 ppm
same,LOAEL,rat [1]; [16],300 ppm
same,NEL,rat [1]; [16],100 ppm
same,NOAEL,rat [1]; [16],100 ppm
"Nc1nc(N)nc(Cl)n1 [2-Chloro-4,6-diamino-1,3,5-triazine]",LEL,rat [2]; [17],7.6 mg/kg/day
same,LOAEL,rat [2]; [17],7.6 mg/kg/day
same,NEL,rat [2]; [17],0.7 mg/kg/day
same,NOAEL,rat [2]; [17],0.7 mg/kg/day
same,LOAEL,rat [2]; [18],> 34.1 mg/kg/day
same,NEL,rat [2]; [18],6.7 mg/kg/day
same,NOAEL,rat [2]; [18],≥ 34.1 mg/kg/day
same,LEL,"rat [2]; group: systemic, systemic / clinical chemistry / protein / protein",16.7 mg/kg/day
same,LEL,rat [3]; [19],25 mg/kg/day
same,LOAEL,rat [3]; [19],25 mg/kg/day
same,NEL,rat [3]; [19],2.5 mg/kg/day
same,NOAEL,rat [3]; [19],2.5 mg/kg/day
same,LEL,rat [3]; [20],75 mg/kg/day
same,LOAEL,rat [3]; [20],75 mg/kg/day
same,NEL,rat [3]; [21],25 mg/kg/day
same,NOAEL,rat [3]; [21],25 mg/kg/day
O=c1[nH]c(=O)[nH]c(=O)[nH]1 [Cyanuric acid],LOAEL,"rabbit [4]; group: developmental, developmental / developmental malformation / brain / hydrocephaly",500 mg/kg/day
same,LEL,rabbit [4]; [22],500 mg/kg/day
same,NEL,rabbit [4]; [22],200 mg/kg/day
same,NOAEL,rabbit [4]; [22],200 mg/kg/day
same,LEL,rabbit [4]; [23],500 mg/kg/day
same,LOAEL,rabbit [4]; [23],> 500 mg/kg/day
same,NEL,rabbit [4]; [23],200 mg/kg/day
same,NOAEL,rabbit [4]; [23],≥ 500 mg/kg/day
OCCOCCO [Diethylene glycol],LEL,rat [5]; [24],4470 mg/kg/day
same,LOAEL,rat [5]; [24],4470 mg/kg/day
same,NEL,rat [5]; [25],1120 mg/kg/day
same,NOAEL,rat [5]; [25],1120 mg/kg/day
same,LEL,rat [5]; [26],4470 mg/kg/day
same,LOAEL,rat [5]; [26],4470 mg/kg/day
same,NEL,rat [5]; [27],1120 mg/kg/day
same,NOAEL,rat [5]; [27],1120 mg/kg/day
same,LEL,mouse; [14],11200 mg/kg/day
same,LOAEL,mouse; [14],11200 mg/kg/day
same,NEL,mouse; [14],2800 mg/kg/day
same,NOAEL,mouse; [14],2800 mg/kg/day
same,LEL,mouse; [26],2800 mg/kg/day
same,LOAEL,mouse; [26],2800 mg/kg/day
same,NEL,mouse; [28],559 mg/kg/day
same,NOAEL,mouse; [28],559 mg/kg/day
C#CCN1CC(=O)N(COC(=O)C2C(C=C(C)C)C2(C)C)C1=O (centres undefined) [Imiprothrin],LEL,rat [6]; [29],399 mg/kg/day
same,LOAEL,rat [6]; [29],> 657 mg/kg/day
same,NEL,rat [6]; [29],197 mg/kg/day
same,NOAEL,rat [6]; [29],≥ 657 mg/kg/day
same,LOAEL,rat [6]; [30],179 mg/kg/day
same,NOAEL,rat [6]; [30],5.9 mg/kg/day
same,LEL,rat [6]; [31],5.9 mg/kg/day
same,NEL,rat [6]; [31],< 5.9 mg/kg/day
same,LEL,rabbit [7]; [32],100 mg/kg/day
same,LOAEL,rabbit [7]; [32],100 mg/kg/day
same,NEL,rabbit [7]; [33],30 mg/kg/day
same,NOAEL,rabbit [7]; [33],30 mg/kg/day
same,LOAEL,rabbit [7]; [16],100 mg/kg/day
same,LEL,rabbit [7]; [34],100 mg/kg/day
same,NEL,rabbit [7]; [34],30 mg/kg/day
same,NOAEL,rabbit [7]; [34],30 mg/kg/day
same,NEL,rat [8]; [35],126 mg/kg/day
same,NOAEL,rat [8]; [35],126 mg/kg/day
same,LEL,rat [8]; [36],369 mg/kg/day
same,LOAEL,rat [8]; [36],369 mg/kg/day
same,LEL,rat [8]; [37],144 mg/kg/day
same,LOAEL,rat [8]; [37],144 mg/kg/day
same,NEL,rat [8]; [38],14.7 mg/kg/day
same,NOAEL,rat [8]; [38],14.7 mg/kg/day
CCOC(=O)C1=NOC(c2ccccc2)(c2ccccc2)C1 [Isoxadifen-ethyl],LEL,rabbit [9]; [39],500 mg/kg/day
same,LOAEL,rabbit [9]; [39],500 mg/kg/day
same,NEL,rabbit [9]; [39],50 mg/kg/day
same,NOAEL,rabbit [9]; [39],50 mg/kg/day
same,LOAEL,"rabbit [9]; group: maternal, systemic / in life observation / mortality / mortality",500 mg/kg/day
same,LEL,rabbit [9]; [40],500 mg/kg/day
same,NEL,rabbit [9]; [40],50 mg/kg/day
same,NOAEL,rabbit [9]; [40],50 mg/kg/day
same,LEL,rat [10]; [41],120 mg/kg/day
same,LOAEL,rat [10]; [41],120 mg/kg/day
same,NEL,rat [10]; [41],15 mg/kg/day
same,NOAEL,rat [10]; [41],15 mg/kg/day
same,LEL,rat [10]; [42],1000 mg/kg/day
same,LOAEL,rat [10]; [42],1000 mg/kg/day
same,NEL,rat [10]; [42],120 mg/kg/day
same,NOAEL,rat [10]; [42],120 mg/kg/day
C[C@H]1O[C@H](OC2[C@@H](O)[C@@H](O)C(O)[C@H](O)[C@H]2O)[C@@H](N)C[C@@H]1N=C(N)C(=O)O (some centres undefined) [Kasugamycin],LEL,rat [11]; [43],70.3 mg/kg/day
same,LOAEL,rat [11]; [43],70.3 mg/kg/day
same,NEL,rat [11]; [43],13.7 mg/kg/day
same,NOAEL,rat [11]; [43],13.7 mg/kg/day
same,LEL,rat [11]; [44],425 mg/kg/day
same,LOAEL,rat [11]; [44],425 mg/kg/day
same,NEL,rat [11]; [44],70.3 mg/kg/day
same,NOAEL,rat [11]; [44],70.3 mg/kg/day
CC(C)(C#N)O[C@@H]1O[C@H](CO)[C@@H](O)[C@H](O)[C@H]1O [Linamarin],LOAEL,hamster; [45],> 140 mg/kg/day
same,NEL,hamster; [45],100 mg/kg/day
same,NOAEL,hamster; [45],≥ 140 mg/kg/day
same,LEL,"hamster; group: developmental, developmental / developmental malformation / bone / absent + developmental / developmental malformation / bone / meningoencephalocele",120 mg/kg/day
same,LEL,hamster; [46],100 mg/kg/day
same,LOAEL,hamster; [46],> 140 mg/kg/day
same,NEL,hamster; [46],70 mg/kg/day
same,NOAEL,hamster; [46],≥ 140 mg/kg/day
[Li+].[O-]Cl [Lithium hypochlorite],LOAEL,rat [12]; [47],500 mg/kg/day
same,NEL,rat [12]; [47],10 mg/kg/day
same,NOAEL,rat [12]; [47],100 mg/kg/day
same,LEL,"rat [12]; group: developmental, developmental / developmental malformation / bone / kinked + developmental / developmental malformation / bone / thread-like + developmental…",50 mg/kg/day
same,LEL,rat [12]; [48],500 mg/kg/day
same,LOAEL,rat [12]; [48],500 mg/kg/day
same,NEL,rat [12]; [48],100 mg/kg/day
same,NOAEL,rat [12]; [48],100 mg/kg/day
Cc1cc(C)c(C2=C(OC(=O)CC(C)(C)C)C3(CCCC3)OC2=O)c(C)c1 [Spiromesifen],LEL,rat [13]; [49],13.2 mg/kg/day
same,LOAEL,rat [13]; [49],13.2 mg/kg/day
same,NEL,rat [13]; [49],3.3 mg/kg/day
same,NOAEL,rat [13]; [49],3.3 mg/kg/day
same,LEL,rat [13]; [50],13.2 mg/kg/day
same,LOAEL,rat [13]; [50],13.2 mg/kg/day
same,NEL,rat [13]; [51],3.3 mg/kg/day
same,NOAEL,rat [13]; [51],3.3 mg/kg/day
same,LEL,rat [13]; [52],18 mg/kg/day
same,LOAEL,rat [13]; [52],18 mg/kg/day
same,NEL,rat [13]; [52],4.6 mg/kg/day
same,NOAEL,rat [13]; [52],4.6 mg/kg/day

# Source: EPA's ToxRefDB 2
